Results: patent US12528816B2, “Substituted imidazo [1,2-b] pyridazines and [1, 2, 4] triazolo [ 4,3-b] pyridazines as camkii inhibitors” (Cardurion Pharmaceuticals, INC., priority 2020, dated 2026)

What follows are compounds tested against T1, human CaMKIIδ (Homo sapiens, UniProt Q13557) (assay: Evaluation of in vitro CaMKII inhibitory activity (binding assay, TR-FRET)). Conditions: human CaMKIIδ, TR-FRET binding assay; class symbols A/B/C; read-out: Act (CaMKII inhibitory activity, binding assay).
T1 construct: Full-length, glutathione-S-transferase(GST)-tagged, human CaMKIIδ was purchased from Carna Biosciences; purchased Carna Biosciences (CaMKIIδ); Wako Pure Chemical Industries (calmodulin) 02-111
Summary of the method: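 Inhibitors, in eight concentrations of 4-fold dilution, were incubated 1 h at room temperature with a protein–fluorescent probe premix preformed 30 min on ice, containing calmodulin and terbium anti-GST antibody. Displacement read by TR-FRET in duplicate; IC50 by logistic fitting.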

`C[C@@H](Cn1cnnn1)Oc1cccc(-c2ccn3ncc(-c4cccc(C(=O)NCc5ccncc5)c4)c3n2)c1` [compound 93] and `C[C@@H](Cn1cnnn1)Oc1cccc(-c2ccn3ncc(-c4cccc(C(=O)NCCc5ccncc5)c4)c3n2)c1` [compound 107] cannot be ordered by IC50: less than 10 nM for the first, less than 10 nM for the second.

`C[C@@H](Cn1cnnn1)Oc1cccc(-c2ccn3ncc(-c4cccc(C(=O)NCc5cccnc5)c4)c3n2)c1` [compound 94] and `C[C@@H](Cn1cnnn1)Oc1cccc(-c2ccn3ncc(-c4cccc(C(=O)NCCc5cccnc5)c4)c3n2)c1` [compound 108] cannot be ordered by IC50: less than 10 nM for the first, less than 10 nM for the second.

`C[C@@H](Cn1cnnn1)Oc1cccc(-c2ccn3ncc(-c4cccc(C(=O)NCCn5ccnc5)c4)c3n2)c1` [compound 95] and `C[C@@H](Cn1cnnn1)Oc1cccc(-c2ccn3ncc(-c4cccc(C(=O)NCCn5cncn5)c4)c3n2)c1` [compound 96] cannot be ordered by IC50: less than 10 nM for the first, less than 10 nM for the second.

`C[C@@H](Cn1cnnn1)Oc1cccc(-c2ccn3ncc(-c4cccc(C(=O)NC5CC(=O)N(C)C5)c4)c3n2)c1` (stereo partly drawn) [compound 97, N-(1-methyl-5-oxopyrrolidin-3-yl)-3-[5-(3-{[(2S)-1-(1H-tetrazol-1-yl)propan-2-yl]oxy}phenyl)pyrazolo[1,5-a]pyrimidin-3-yl]benzamide] and `C[C@@H](Cn1cnnn1)Oc1cccc(-c2ccn3ncc(-c4cccc(C(=O)NC5CCN(C)C(=O)C5)c4)c3n2)c1` (some centres unmarked) [compound 112] cannot be ordered by IC50: less than 10 nM for the first, less than 10 nM for the second.

First: C[C@@H](Cn1cnnn1)Oc1cccc(-c2ccn3ncc(-c4cccc(C(=O)NC5CCN(C)CC5)c4)c3n2)c1 [compound 98]
Second: COC1CCN(C(=O)c2cccc(-c3cnn4ccc(-c5cccc(O[C@@H](C)Cn6cnnn6)c5)nc34)c2)CC1 [compound 101]
The IC50 of the first is lower: less than 10 nM for the first, 10 to 100 nM for the second.

`C[C@@H](Cn1cnnn1)Oc1cccc(-c2ccn3ncc(-c4cccc(C(=O)N5CCC(C)(O)CC5)c4)c3n2)c1` [compound 99] and `C[C@@H](Cn1cnnn1)Oc1cccc(-c2ccn3ncc(-c4cccc(C(=O)N5CCn6ccnc6C5)c4)c3n2)c1` [compound 109] fall in the same range of IC50: 10 to 100 nM for the first, 10 to 100 nM for the second.

Compared with `C[C@@H](Cn1cnnn1)Oc1cccc(-c2ccn3ncc(-c4cccc(C(=O)NCC5CCOCC5)c4)c3n2)c1` [compound 100], `C[C@@H](Cn1cnnn1)Oc1cccc(-c2ccn3ncc(-c4cccc(C(=O)NCCC5CCCCC5)c4)c3n2)c1` [compound 111] is higher in IC50: less than 10 nM for the first, 10 to 100 nM for the second.

`CC(=O)NCCCNC(=O)c1cccc(-c2cnn3ccc(-c4cccc(O[C@@H](C)Cn5cnnn5)c4)nc23)c1` [compound 102] and `C[C@@H](Cn1cnnn1)Oc1cccc(-c2ccn3ncc(-c4cccc(C(=O)NCCCCN(C)C)c4)c3n2)c1` [compound 104] cannot be ordered by IC50: less than 10 nM for the first, less than 10 nM for the second.

`CCN(CC)CCNC(=O)c1cccc(-c2cnn3ccc(-c4cccc(O[C@@H](C)Cn5cnnn5)c4)nc23)c1` [compound 103] and `C[C@@H](Cn1cnnn1)Oc1cccc(-c2ccn3ncc(-c4cccc(C(=O)NCCN5CCCC5=O)c4)c3n2)c1` [compound 113] cannot be ordered by IC50: less than 10 nM for the first, less than 10 nM for the second.

First: C[C@@H](Cn1cnnn1)Oc1cccc(-c2ccn3ncc(-c4cccc(C(=O)NCCc5ccccc5)c4)c3n2)c1 [compound 105]
Second: C[C@@H](Cn1cnnn1)Oc1cccc(-c2ccn3ncc(-c4cccc(C(=O)NCCc5ccccn5)c4)c3n2)c1 [compound 106]
The IC50 of the first is higher: 10 to 100 nM for the first, less than 10 nM for the second.

First: C[C@@H](Cn1cnnn1)Oc1cccc(-c2ccn3ncc(-c4cccc(C(=O)N5CCn6ncnc6C5)c4)c3n2)c1 [compound 110]
Second: C[C@@H](Cn1cnnn1)Oc1cc(-c2ccn3ncc(-c4cccc(Cl)c4)c3n2)ccc1F [compound 134]
The IC50 of the first is higher: 10 to 100 nM for the first, less than 10 nM for the second. The second is the more potent here.

`C[C@@H](Cc1nnn[nH]1)Oc1cccc(-c2ccn3ncc(-c4cccs4)c3n2)c1` [compound 114] and `C[C@@H](Cn1cnnn1)Oc1cc(-c2ccn3ncc(-c4cccc(F)c4C(N)=O)c3n2)ccc1F` [compound 155] fall in the same range of IC50: 10 to 100 nM for the first, 10 to 100 nM for the second.

`CNC(=O)c1cccc(-n2cnc3ccc(-c4ccc(F)c(O[C@@H](C)Cn5cnnn5)c4)nc32)c1` [compound 115] and `CNC(=O)c1ccnc(-n2cnc3ccc(-c4ccc(F)c(O[C@@H](C)Cn5cnnn5)c4)nc32)c1` [compound 116] cannot be ordered by IC50: less than 10 nM for the first, less than 10 nM for the second.

`CCN(CC)CCNC(=O)c1ccnc(-n2cnc3ccc(-c4ccc(F)c(O[C@@H](C)Cn5cnnn5)c4)nc32)c1` [compound 117] and `C[C@@H](Cn1cnnn1)Oc1cc(-c2ccc3ncn(-c4ccccn4)c3n2)ccc1F` [compound 153, 2-[5-(4-fluoro-3-{[(2S)-1-(1H-tetrazol-1-yl)propan-2-yl]oxy}phenyl)-3H-imidazo[4,5-b]pyridin-3-yl]pyridine] cannot be ordered by IC50: less than 10 nM for the first, less than 10 nM for the second.

First: C[C@@H](Cn1cnnn1)Oc1cc(-c2ccc3ncn(-c4cnn(C(=O)OC(C)(C)C)c4)c3n2)ccc1F [compound 118]
Second: C[C@@H](Cn1cnnn1)Oc1cc(-c2ccc3ncn(-c4cnn(C)c4)c3n2)ccc1F [compound 120]
The IC50 of the first is lower: less than 10 nM for the first, 10 to 100 nM for the second. The first is the more potent here.

`C[C@@H](Cn1cnnn1)Oc1cc(-c2ccc3ncn(-c4cn[nH]c4)c3n2)ccc1F` [compound 119] and `C[C@@H](Cn1cnnn1)Oc1cc(-c2ccc3ncn(-c4ccn(C)n4)c3n2)ccc1F` [compound 122] cannot be ordered by IC50: less than 10 nM for the first, less than 10 nM for the second.

Compared with `C[C@@H](Cn1cnnn1)Oc1cc(-c2ccn3ncc(-c4ccccc4C=O)c3n2)ccc1F` [compound 123], `C[C@@H](Cn1cnnn1)Oc1cc(-c2ccn3ncc(-c4ccccc4Cl)c3n2)ccc1F` [compound 133] is higher in IC50: less than 10 nM for the first, 10 to 100 nM for the second.

`C[C@@H](Cn1cnnn1)Oc1cc(-c2ccc3ncc(-c4cn(CC(=O)OCc5ccccc5)nc4C#N)n3n2)ccc1F` [compound 124] and `C[C@@H](Cn1cnnn1)Oc1cc(-c2ccc3ncc(-c4cn(CC(=O)O)nc4C#N)n3n2)ccc1F` [compound 125] fall in the same range of IC50: 10 to 100 nM for the first, 10 to 100 nM for the second.

`COCCCNC(=O)Cn1cc(-c2cnc3ccc(-c4ccc(F)c(O[C@@H](C)Cn5cnnn5)c4)nn23)c(C#N)n1` [compound 126] and `C[C@@H](Cn1cnnn1)Oc1cc(-c2ccc3ncc(-c4cn(CC(=O)NCCN5CCOCC5)nc4C#N)n3n2)ccc1F` [compound 127] cannot be ordered by IC50: greater than 100 nM for the first, greater than 100 nM for the second.

First: COC(=O)c1cccc(-c2cnn3ccc(-c4ccc(F)c(O[C@@H](C)Cn5cnnn5)c4)nc23)c1Cl [compound 128]
Second: C[C@@H](Cn1cnnn1)Oc1cc(-c2ccn3ncc(-c4cccc(F)c4C#N)c3n2)ccc1F [compound 154]
The IC50 of the first is higher: 10 to 100 nM for the first, less than 10 nM for the second.

Compared with `C[C@@H](Cn1cnnn1)Oc1cc(-c2ccn3ncc(-c4ccccc4C(F)(F)F)c3n2)ccc1F` [compound 129], `C[C@@H](Cn1cnnn1)Oc1cc(-c2ccn3ncc(-c4ccccc4C(F)F)c3n2)ccc1F` [compound 149] is lower in IC50: greater than 100 nM for the first, 10 to 100 nM for the second. The second is the more potent here.

First: C[C@@H](Cn1cnnn1)Oc1cc(-c2ccn3ncc(-c4cccc(C(F)(F)F)c4)c3n2)ccc1F [compound 130]
Second: C[C@@H](Cn1cnnn1)Oc1cc(-c2ccn3ncc(-c4cccc(C(F)F)c4)c3n2)ccc1F [compound 131]
The IC50 of the first is higher: 10 to 100 nM for the first, less than 10 nM for the second. The second is the more potent here.

`C[C@@H](Cn1cnnn1)Oc1cc(-c2ccn3ncc(-c4ccc(C(F)F)cc4)c3n2)ccc1F` [compound 132] and `C[C@@H](Cn1cnnn1)Oc1cc(-c2ccn3ncc(-c4ccc(Cl)cc4)c3n2)ccc1F` [compound 135] fall in the same range of IC50: 10 to 100 nM for the first, 10 to 100 nM for the second.

First: C[C@@H](Cn1cnnn1)Oc1cc(-c2ccn3ncc(-c4ccc(C#N)cc4)c3n2)ccc1F [compound 136]
Second: C[C@@H](Cn1cnnn1)Oc1cc(-c2ccn3ncc(-c4cncc(C#N)c4)c3n2)ccc1F [compound 156]
The IC50 of the first is higher: 10 to 100 nM for the first, less than 10 nM for the second. The second is the more potent here.

`C[C@@H](Cn1cnnn1)Oc1cc(-c2ccn3ncc(-c4cccnc4C#N)c3n2)ccc1F` [compound 137] and `C[C@@H](Cn1cnnn1)Oc1cc(-c2ccn3ncc(-c4cnccc4C#N)c3n2)ccc1F` [compound 138] cannot be ordered by IC50: less than 10 nM for the first, less than 10 nM for the second.

`C[C@@H](Cn1cnnn1)Oc1cc(-c2ccn3ncc(-c4ccc(C#N)s4)c3n2)ccc1F` [compound 139] and `Cc1ncc(-c2cnn3ccc(-c4ccc(F)c(O[C@@H](C)Cn5cnnn5)c4)nc23)s1` [compound 141] cannot be ordered by IC50: less than 10 nM for the first, less than 10 nM for the second.

Compared with `COc1ccnc(-c2cnn3ccc(-c4ccc(F)c(O[C@@H](C)Cn5cnnn5)c4)nc23)c1` [compound 140], `C[C@@H](Cn1cnnn1)Oc1cc(-c2ccn3ncc(-c4cc[nH]n4)c3n2)ccc1F` [compound 158] is lower in IC50: 10 to 100 nM for the first, less than 10 nM for the second. The second is the more potent here.

First: Cc1nn(C)cc1-c1cnn2ccc(-c3ccc(F)c(O[C@@H](C)Cn4cnnn4)c3)nc12 [compound 142]
Second: Cc1c(-c2cnn3ccc(-c4ccc(F)c(O[C@@H](C)Cn5cnnn5)c4)nc23)cnn1C [compound 143]
The IC50 of the first is higher: 10 to 100 nM for the first, less than 10 nM for the second.

Compared with `C[C@@H](Cn1cnnn1)Oc1cc(-c2ccn3ncc(-c4cnn(C(F)F)c4)c3n2)ccc1F` [compound 144], `C[C@@H](Cn1cnnn1)Oc1cc(-c2ccn3ncc(-c4cnn(CCN5CCOCC5)c4)c3n2)ccc1F` [compound 145] is higher in IC50: less than 10 nM for the first, 10 to 100 nM for the second.

First: CCOC(=O)c1ccc(C#N)c(-c2cnc3ccc(-c4ccc(F)c(O[C@@H](C)Cn5cnnn5)c4)nn23)c1 [compound 146]
Second: C[C@@H](Cn1cnnn1)Oc1cc(-c2ccc3ncc(-c4cc(C(=O)O)ccc4C#N)n3n2)ccc1F [compound 147]
The IC50 of the first is lower: less than 10 nM for the first, 10 to 100 nM for the second. The first is the more potent here.

Compared with `C[C@@H](Cn1cnnn1)Oc1cc(-c2ccc3ncc(-c4cc(C(=O)NCCN5CCOCC5)ccc4C#N)n3n2)ccc1F` [compound 148], `COc1c(C(=O)NCCN2CCOCC2)cccc1-c1cnn2ccc(-c3ccc(F)c(O[C@@H](C)Cn4cnnn4)c3)nc12` [compound 152] is lower in IC50: 10 to 100 nM for the first, less than 10 nM for the second. The second is the more potent here.

`C[C@@H](Cn1cnnn1)Oc1cc(-c2ccc3ncn(-c4ccccc4C#N)c3n2)ccc1F` [compound 151] and `C[C@@H](Cn1cnnn1)Oc1cc(-c2ccc3ncn(-c4cccc(C#N)n4)c3n2)ccc1F` [compound 159] cannot be ordered by IC50: less than 10 nM for the first, less than 10 nM for the second.

With `C[C@@H](Cn1cnnn1)Oc1cc(-c2ccn3ncc(-c4cc(F)ccc4C#N)c3n2)ccc1F` [compound 157] the IC50 was less than 10 nM.
